This is an account of results in ChEMBL document CHEMBL2439973, “Discovery of VU0409106: A negative allosteric modulator of mGlu5 with activity in a mouse model of anxiety” (Bioorg Med Chem Lett, 2013).

The target in data set [1] is Metabotropic glutamate receptor 5 (Rattus norvegicus) (UniProt P31424). Briefly: Negative allosteric modulation of rat mGlu5 receptor expressed in HEK293A cells assessed as inhibition of glutamate-induced calcium mobilization at 30 uM preincubated for 140 seconds prior to glutamate-stimulation measured after 60 seconds relative to glutamate. To be noted: HEK293-A. The format is functional, cell-based.

Data set [2] deals with Metabotropic glutamate receptor 5 (Rattus norvegicus, UniProt P31424). In words: Negative allosteric modulation of rat mGlu5 receptor expressed in HEK293A cells assessed as inhibition of glutamate-induced calcium mobilization preincubated for 140 seconds prior to glutamate-stimulation measured after 60 seconds. The format is functional, cell-based, HEK293-A.
The subject of data set [3] is Brain. Briefly: Fraction unbound in mouse brain homogenates by equilibrium dialysis technique. The format is ADME, tissue-based. The settings on record: brain homogenate.
Another data set deals with Cytochrome P450 3A4 (Homo sapiens, UniProt P08684). Briefly: Inhibition of CYP3A4 in human liver microsomes in presence of NADPH. The format is ADME, Microsome.
For data set [4], the system named is Plasma. In words: Tmax in CD-1 mouse plasma at 10 mg/kg, ip by LC-MS/MS analysis. The format is ADME, organism-based. Set-up: dose 10 mg/kg, route intraperitoneal. The settings on record: in vivo.
The test system of data set [5] is Plasma. Briefly: AUC in CD-1 mouse plasma at 10 mg/kg, ip by LC-MS/MS analysis. The format is ADME, organism-based. The settings on record: in vivo. More on the design: dose 10 mg/kg, route intraperitoneal.
The nature of data set [6]: Ratio of drug level in brain to plasma in CD-1 mouse at 10 mg/kg, ip by LC-MS/MS analysis. Set-up: dose 10 mg/kg, route intraperitoneal. The format is ADME, organism-based. The settings on record: brain and plasma, read-out: BPR.
A short description of data set [7]: Cmax in CD-1 mouse brain at 10 mg/kg, ip by LC-MS/MS analysis. The format is ADME, organism-based. More on the design: dose 10 mg/kg, route intraperitoneal.
In data set [8] the test system is Brain. Briefly: AUC in CD-1 mouse brain at 10 mg/kg, ip by LC-MS/MS analysis. The format is ADME, organism-based. More on the design: dose 10 mg/kg, route intraperitoneal. The settings on record: in vivo.
Data set [9] concerns Brain. Briefly: Tmax in CD-1 mouse brain at 10 mg/kg, ip by LC-MS/MS analysis. To be noted: in vivo. The format is ADME, organism-based. Set-up: dose 10 mg/kg, route intraperitoneal.
Data set [10] relates to Plasma. Briefly: Cmax in CD-1 mouse plasma at 10 mg/kg, ip by LC-MS/MS analysis. The format is ADME, organism-based. More on the design: dose 10 mg/kg, route intraperitoneal. The settings on record: in vivo.

Chain of Metabotropic glutamate receptor 5 (Rattus norvegicus) (P31424 21-1203 limits assumed): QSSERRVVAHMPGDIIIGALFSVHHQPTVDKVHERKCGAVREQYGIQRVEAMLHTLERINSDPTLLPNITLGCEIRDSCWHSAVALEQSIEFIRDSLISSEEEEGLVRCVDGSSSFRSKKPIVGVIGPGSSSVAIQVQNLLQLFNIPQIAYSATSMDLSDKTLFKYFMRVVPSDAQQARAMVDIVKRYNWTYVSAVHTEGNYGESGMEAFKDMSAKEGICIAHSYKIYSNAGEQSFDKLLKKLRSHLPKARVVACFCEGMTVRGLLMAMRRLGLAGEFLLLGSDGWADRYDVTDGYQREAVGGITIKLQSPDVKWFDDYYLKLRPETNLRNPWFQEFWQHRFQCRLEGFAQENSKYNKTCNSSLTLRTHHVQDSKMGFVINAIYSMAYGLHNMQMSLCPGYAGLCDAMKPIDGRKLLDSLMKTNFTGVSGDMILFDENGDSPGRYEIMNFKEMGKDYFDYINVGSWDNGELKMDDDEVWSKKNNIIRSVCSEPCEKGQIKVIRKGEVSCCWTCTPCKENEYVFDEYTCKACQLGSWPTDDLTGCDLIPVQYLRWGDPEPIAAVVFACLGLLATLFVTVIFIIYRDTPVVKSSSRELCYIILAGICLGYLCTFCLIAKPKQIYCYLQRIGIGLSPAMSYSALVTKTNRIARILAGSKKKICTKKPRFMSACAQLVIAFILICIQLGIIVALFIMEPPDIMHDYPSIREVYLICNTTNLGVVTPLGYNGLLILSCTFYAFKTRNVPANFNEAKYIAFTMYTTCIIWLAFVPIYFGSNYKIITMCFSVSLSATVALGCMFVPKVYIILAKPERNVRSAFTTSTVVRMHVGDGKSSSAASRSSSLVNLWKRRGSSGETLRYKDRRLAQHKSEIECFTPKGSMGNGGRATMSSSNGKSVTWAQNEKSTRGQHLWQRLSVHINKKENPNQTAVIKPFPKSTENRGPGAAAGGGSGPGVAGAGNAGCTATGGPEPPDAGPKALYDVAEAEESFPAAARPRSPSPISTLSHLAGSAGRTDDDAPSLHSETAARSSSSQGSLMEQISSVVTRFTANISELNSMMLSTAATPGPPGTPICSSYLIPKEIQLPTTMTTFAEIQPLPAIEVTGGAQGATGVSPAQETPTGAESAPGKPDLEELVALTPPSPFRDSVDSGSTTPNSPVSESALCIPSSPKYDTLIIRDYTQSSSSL
Chain of Metabotropic glutamate receptor 5 (P31424 whole entry): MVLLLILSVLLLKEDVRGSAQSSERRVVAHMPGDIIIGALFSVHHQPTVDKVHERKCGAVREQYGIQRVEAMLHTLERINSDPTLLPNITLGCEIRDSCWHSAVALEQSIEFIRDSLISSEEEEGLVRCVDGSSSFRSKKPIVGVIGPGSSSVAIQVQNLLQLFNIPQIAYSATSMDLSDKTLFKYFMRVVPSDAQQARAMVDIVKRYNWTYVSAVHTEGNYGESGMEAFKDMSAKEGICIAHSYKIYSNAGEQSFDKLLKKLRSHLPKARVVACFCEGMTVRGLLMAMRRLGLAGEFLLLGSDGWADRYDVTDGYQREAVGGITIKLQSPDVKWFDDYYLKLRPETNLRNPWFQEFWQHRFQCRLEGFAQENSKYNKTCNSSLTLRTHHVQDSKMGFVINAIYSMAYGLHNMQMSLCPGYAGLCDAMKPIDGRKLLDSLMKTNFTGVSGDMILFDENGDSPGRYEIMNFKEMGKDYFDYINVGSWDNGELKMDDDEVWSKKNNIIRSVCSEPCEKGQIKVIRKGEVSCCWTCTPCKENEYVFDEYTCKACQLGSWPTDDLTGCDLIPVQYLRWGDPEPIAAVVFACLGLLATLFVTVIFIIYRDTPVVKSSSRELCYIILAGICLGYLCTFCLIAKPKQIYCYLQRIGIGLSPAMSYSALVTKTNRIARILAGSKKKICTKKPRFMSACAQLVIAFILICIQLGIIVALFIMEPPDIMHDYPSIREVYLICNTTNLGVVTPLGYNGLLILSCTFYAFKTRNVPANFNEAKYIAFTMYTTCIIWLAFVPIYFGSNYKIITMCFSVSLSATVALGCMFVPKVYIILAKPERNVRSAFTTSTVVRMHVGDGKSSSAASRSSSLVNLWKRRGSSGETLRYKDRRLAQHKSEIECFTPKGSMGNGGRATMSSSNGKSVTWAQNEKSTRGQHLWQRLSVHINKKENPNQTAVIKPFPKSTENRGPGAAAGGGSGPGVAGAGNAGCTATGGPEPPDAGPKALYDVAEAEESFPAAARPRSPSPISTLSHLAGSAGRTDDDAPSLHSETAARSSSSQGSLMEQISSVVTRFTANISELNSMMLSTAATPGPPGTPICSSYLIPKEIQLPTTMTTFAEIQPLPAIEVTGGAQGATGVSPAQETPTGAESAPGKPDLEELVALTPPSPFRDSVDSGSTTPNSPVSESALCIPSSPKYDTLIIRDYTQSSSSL
Chain of Cytochrome P450 3A4 (P08684 whole entry): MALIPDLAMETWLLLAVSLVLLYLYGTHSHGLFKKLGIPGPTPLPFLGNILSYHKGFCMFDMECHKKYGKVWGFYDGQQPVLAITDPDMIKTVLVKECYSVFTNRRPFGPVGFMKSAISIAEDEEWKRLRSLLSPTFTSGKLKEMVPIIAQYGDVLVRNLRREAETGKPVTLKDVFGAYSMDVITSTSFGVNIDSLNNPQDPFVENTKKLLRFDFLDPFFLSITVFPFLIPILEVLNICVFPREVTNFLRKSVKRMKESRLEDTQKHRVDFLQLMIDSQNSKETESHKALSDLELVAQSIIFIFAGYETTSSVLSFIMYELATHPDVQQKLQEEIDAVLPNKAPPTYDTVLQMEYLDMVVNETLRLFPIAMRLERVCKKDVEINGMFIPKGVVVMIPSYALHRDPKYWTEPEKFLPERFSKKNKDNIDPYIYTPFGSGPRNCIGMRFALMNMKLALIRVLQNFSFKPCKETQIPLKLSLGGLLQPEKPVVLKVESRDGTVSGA

As for `Nc1cc(NC(=O)c2cccc(Cl)c2)cc(Oc2cccnc2)c1`, the %max in data set [1] worked out at 1.3%. In addition, the IC50 in data set [2] worked out at 284 nM.

With `O=C(Nc1cccc(Cl)c1)c1cccc(Oc2cccnc2)c1`, the %max in [1] amounted to 1.6%. Further, in data set [2], the IC50 stood at 1960 nM.

Take `Cc1cccc(NC(=O)c2cccc(Oc3cccnc3)c2)c1`: in data set [1], the %max stood at 1.4%. In addition, in data set [2], the IC50 came out at 2190 nM.

Consider `O=C(Nc1nc(C(F)F)cs1)c1cc(Cl)cc(Oc2cncnc2)c1`, for which the IC50 in [2] was 310 nM.

`O=C(Nc1nccs1)c1cc(F)cc(Oc2cncnc2)c1`: the IC50 in data set [2] stood at 1790 nM.

`Cc1cccc(NC(=O)c2cc(Cl)cc(Oc3cncnc3)c2)n1` showed a Fu with Brain [3] of 0.052. Besides, the IC50 at Cytochrome P450 3A4 is 4300 nM.

Take `Cc1csc(NC(=O)c2cccc(Oc3cncnc3)c2)n1`: in [2], the IC50 stood at 205 nM.

In the case of `N#Cc1cncc(Oc2cc(Cl)cc(C(=O)Nc3ccc(F)cn3)c2)c1`, the Fu with Brain [3] came to 0.016. Besides, the IC50 turned out to be 1700 nM at Cytochrome P450 3A4 and 27 nM in [2]. The %max in [1] was found to be 1.7%.

`Cc1csc(NC(=O)c2cc(Cl)cc(Oc3cncnc3)c2)n1` displayed a Fu in the data set on Brain [3] of 0.025. The IC50 on Cytochrome P450 3A4 amounted to 2200 nM.

On to `O=C(Nc1ccc(F)cn1)c1cc(Oc2cncnc2)cc(C(F)(F)F)c1`, for which the %max in [1] is 3.2%. Besides, the IC50 in data set [2] amounted to 5530 nM.

With `Cc1cc(NC(=O)c2cc(Cl)cc(Oc3cncnc3)c2)ncc1F`, the IC50 in [2] is 3250 nM.

On to `Cc1nc(NC(=O)c2cc(F)cc(Oc3cncnc3)c2)sc1F`, for which the IC50 in data set [2] was 54 nM.

Consider `CCc1ccnc(NC(=O)c2cc(Cl)cc(Oc3cncnc3)c2)c1`, for which, in data set [2], the IC50 stood at 4450 nM.

Consider `Cc1csc(NC(=O)c2cccc(Oc3cccnc3)c2)n1`, for which, in [2], the IC50 amounted to 772 nM.

For `N#Cc1cc(Oc2cncnc2)cc(C(=O)Nc2ccc(F)cn2)c1`, in data set [1], the %max was determined as 1.1%. For the same compound, in [2], the IC50 came out at 318 nM.

Consider `O=C(Nc1cccc(F)n1)c1cc(Cl)cc(Oc2cncnc2)c1`, for which, in the data set on Brain [3], the Fu worked out at 0.057. In addition, the IC50 at Cytochrome P450 3A4 was under 100 nM.

Compound `O=C(Nc1ccc(F)cn1)c1cc(Cl)cc(Oc2cncc(F)c2)c1` returned a Fu in the data set with Brain [3] of 0.007. The results for the half-inhibitory concentration (IC50) (on Cytochrome P450 3A4; in data set [2]) were 1300 nM and 25 nM, respectively. Moreover, the %max in data set [1] was determined as 1.1%.

Turning to `Cc1cc(Oc2cncnc2)cc(C(=O)Nc2ccc(F)cn2)c1`, in data set [2], the concentration for half-maximal inhibition (IC50) was determined as 19 nM.

For `O=C(Nc1cccc(Cl)n1)c1cc(Cl)cc(Oc2cncnc2)c1`, the Fu in the data set with Brain [3] is 0.019. In addition, at Cytochrome P450 3A4, the IC50 worked out at 1900 nM.

Compound `Cc1cccc(NC(=O)c2cc(Cl)cc(Oc3cncc(F)c3)c2)n1` showed a Fu in the data set on Brain [3] of 0.003. Further, the IC50 on Cytochrome P450 3A4 was determined as 700 nM; in data set [2], 7.5 nM. Moreover, in data set [1], the %max was found to be 1.8%.

Take `Cc1ncc(Oc2cc(Cl)cc(C(=O)Nc3ccc(F)cn3)c2)cn1`: the %max in data set [1] came out at 2.6%. Besides, in data set [2], the IC50 worked out at 4470 nM.

Consider `Cc1cccc(NC(=O)c2cc(Cl)cc(Oc3cnc(C)nc3)c2)n1`, for which the %max in data set [1] was 1.6%. The IC50 in [2] amounted to 96 nM.

As for `Cc1nc(NC(=O)c2cc(Cl)cc(Oc3cncnc3)c2)ccc1F`, the IC50 in data set [2] came to 50 nM.

In the case of `COc1cccc(NC(=O)c2cc(F)cc(Oc3cncnc3)c2)n1`, in data set [2], the IC50 was 668 nM.

For `O=C(Nc1ccc(Cl)cn1)c1cc(Cl)cc(Oc2cncnc2)c1`, the IC50 in [2] is 103 nM.

On to `Cc1csc(NC(=O)c2cc(Oc3cncnc3)cc(C(F)(F)F)c2)n1`, for which, in [1], the %max is 1.7%. In [2], the IC50 came out at 283 nM.

On to `O=C(Nc1ccc(F)c(C(F)F)n1)c1cc(Cl)cc(Oc2cncnc2)c1`, for which the IC50 in [2] was determined as 502 nM.

On to `O=C(Nc1ccc(F)cn1)c1cccc(Oc2cccnc2)c1`, for which, in data set [2], the concentration for half-maximal inhibition (IC50) is 3780 nM.

As for `O=C(Nc1ccc(F)cn1)c1cc(Cl)cc(Oc2cncnc2)c1`, the results for the Tmax in the data set with Plasma [4] and with Brain [9] were 30 min and 15 min, respectively. Also, in the data set on Brain [3], the Fu came out at 0.08. For the same compound, the AUC with Plasma [5] is 391 ng·h/mL; in the data set with Brain [8] it was 365 ng·h/g. Moreover, the Kp in [6] was 0.93. The IC50 at Cytochrome P450 3A4 was found to be 6200 nM. For the same compound, the Cmax came to 311 ng/g in [7] and 303 ng/mL with Plasma [10].

With `Cc1cccc(NC(=O)c2cc(Cl)cc(Oc3cncc(C#N)c3)c2)n1`, the %max in data set [1] was 1.6%. Besides, the IC50 in [2] worked out at 10 nM.
